Read-outs that look alike come from different tables or passages of the source. Where a SMILES comes first, the peptide text is derived from it. Bridges are numbered along the chain shown (N, C = ends). [ ]: non-standard residue; d: D form. S5 = C=CCCC[C@](C)(N)C(=O)O
Key:
erythrocytes (RBCs) = type: cell-based, human
Method: (§1) Fresh venous blood from healthy donors was collected in lepirudine tubes (50 μg mL-1). Then 50 μL of blood were transferred to round-bottom 96-wells plate containing 150 μL of peptides previously diluted in RPMI-1640—GlutaMAX-I without phenol red (Gibco). 1:4 diluted blood was used as control. 50 μL of blood mixed with 150 μl 5% Tween-20 were used as positive control. After 1 h incubation at 37° C. and 5% CO2, the plate was centrifuged at 800 g, 150 μL of each sample were transferred to a flat-bottom 96-wells plate and the absorbance at 450 nm was measured. The percentage of hemolysis was calculated following the formula reported below: […]
To evaluate the hemolytic effect of the peptides on erythrocytes the blood was collected as reported above and centrifuged at 250 g for 10 min. Then plasma was discarded, and red blood cells were washed with 150 mM NaCl in 10 mM Tris pH 7.4 for three times. Next, the pellet was dilute 100 times with saline Tris buffer. 100 μL of this solution were added to round-bottom 96-wells plate containing 100 μL of peptides previously diluted in saline Tris buffer. After 1 h incubation at 37° C. and 5% CO2, the plate was centrifuged and the absorbance at 450 nm was measured, then the percentage of erythrocyte lysis was determined using formula reported above.
(§2) Data shown are mean values±SEM obtained from at least four independent experiments all made in triplicate. For each experiment blood from a different donor was used.

whole blood = type: cell-based, human
Method: as §1, §2

[1] = target: T1, human neutrophil elastase (HNE) (Homo sapiens, UniProt P08246); type: in vitro ADME
T1 construct: purchased Calbiochem, Merk KGaA, Darmstadt, Germany
T1 sequence (P08246 30-267): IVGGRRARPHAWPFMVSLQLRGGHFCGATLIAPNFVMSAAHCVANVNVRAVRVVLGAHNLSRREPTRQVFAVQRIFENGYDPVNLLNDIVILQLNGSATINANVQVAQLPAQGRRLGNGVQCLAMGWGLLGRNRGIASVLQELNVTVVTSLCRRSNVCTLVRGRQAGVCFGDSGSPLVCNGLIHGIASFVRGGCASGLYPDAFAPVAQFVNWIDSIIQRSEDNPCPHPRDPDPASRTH
Method: (§7) Peptides were resuspended in endotoxin free water at concentration of 1 mM. […] All digestions were performed in three independent experiments.

[2] = target: T2, P. aeruginosa elastase (PE) (Pseudomonas aeruginosa, UniProt P14756); type: in vitro ADME; conditions: SDS-PAGE, digestion 0-18 h
T2 construct: purchased Calbiochem, Merk KGaA, Darmstadt, Germany
Method: All digestions were performed in three independent experiments.
Two μg of the peptide from each condition were loaded on 10-20% Novex Tricine pre-cast gel from Invitrogen (USA). The run was performed at 100 V for 100 min. The gel was stained by using Coomassie Brilliant blue (Invitrogen, USA). The image has been acquired with a Gel Doc Imager (Bio-Rad Laboratories, USA). Samples from three independent digestions were analysed.

trypsin = target: T3, trypsin (Sus scrofa, UniProt P00761); type: in vitro ADME
T3 construct: purchased Promega, Madison, WI, USA
Method: as §7

[3] = test system: proteases (HNE, PE, V8, trypsin); assay: Proteolysis in vitro, fragments by LC-MS/MS
Method: as §7

[4] = test system: release of TNF-α in LPS stimulated blood; assay: Whole blood assay with cytokine ELISA: TNF-α; type: cell-based; conditions: 25% human blood, 100 ng mL^−1 E. coli LPS, 24 h; read-out: Anti-inflammatory activity: Peptide concentration that reduces by 50% the release of TNF-α in LPS stimulated blood
Method: (§3) Fresh venous blood was collected in the presence of lepirudin (50 μg mL^−1) from healthy donors. […] After 24 h incubation at 37° C. in 5% CO2, the plate was centrifuged for 5 min at 1000 g and then the supernatants were collected and stored at −80° C. before analysis. The experiment was performed at least 4 times by using blood from different donors each time. To evaluate the healing properties of the peptides, the blood was stimulated with 100 ng mL^−1 LPS and after 30 min incubation at 37° C. was treated with increasing doses of four peptides. […] Then the blood was stimulated with 100 ng mL^−1 of LPS.
(§4) Plasma obtained from blood experiment was used to evaluate cytokine release. Human inflammation DuoSet® ELISA Kit (R&D Systems) specific for TNF-α and IL-1β was used according to the manufacturer's instructions. Absorbance was measured at a wavelength of 450 nm. Data shown are mean values±SEM obtained from at least four independent experiments all performed in duplicate.
(§5) For each experiment blood from a different donor was used.
(§6) Plasma obtained from blood experiments was used to evaluate cytokine release. […] Absorbance was measured at a wavelength of 450 nm. […]
as §6

[5] = test system: cytokines released from human blood stimulated with E. coli LPS; assay: Whole blood assay, cytokines overall (TNF-α and IL-1β); type: cell-based; conditions: 25% blood, 100 ng mL^−1 LPS, peptide added before or together with LPS, 24 h
Method: as §3, §4, §5, §6, §6

T3 sequence (P00761 9-231): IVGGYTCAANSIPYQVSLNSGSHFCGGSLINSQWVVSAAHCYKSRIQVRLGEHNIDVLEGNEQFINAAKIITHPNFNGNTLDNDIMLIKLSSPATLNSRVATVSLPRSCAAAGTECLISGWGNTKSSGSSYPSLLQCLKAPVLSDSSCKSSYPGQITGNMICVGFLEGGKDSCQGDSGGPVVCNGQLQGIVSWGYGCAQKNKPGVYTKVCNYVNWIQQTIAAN
T2 sequence (P14756 198-498): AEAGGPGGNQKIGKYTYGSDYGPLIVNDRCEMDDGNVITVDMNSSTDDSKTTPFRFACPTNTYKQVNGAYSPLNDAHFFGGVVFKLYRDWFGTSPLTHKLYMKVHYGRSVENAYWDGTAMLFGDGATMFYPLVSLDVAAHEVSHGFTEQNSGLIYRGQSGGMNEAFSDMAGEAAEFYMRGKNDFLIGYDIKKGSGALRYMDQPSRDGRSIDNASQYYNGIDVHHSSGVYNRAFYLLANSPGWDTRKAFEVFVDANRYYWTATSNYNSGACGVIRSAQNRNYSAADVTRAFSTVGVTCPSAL

For `CC[C@H](C)[C@H](NC(=O)[C@H](Cc1c[nH]c2ccccc12)NC(=O)[C@H](CCCCN)NC(=O)[C@H](CCCCN)NC(=O)[C@H](CC(C)C)NC(=O)[C@H](CCCNC(=N)N)NC(=O)[C@H](Cc1ccccc1)NC(=O)[C@@H](NC(=O)[C@@H](N)Cc1c[nH]cn1)C(C)C)C(=O)N[C@@]1(C)CCCC=CCCC[C@@](C)(C(=O)N[C@@H](CCC(N)=O)C(=O)N[C@@H](Cc2ccccc2)C(=O)NCC(=O)N[C@@H](CCC(=O)O)C(=O)O)NC(=O)[C@H]([C@@H](C)CC)NC(=O)[C@H](C(C)C)NC(=O)[C@H](CCCCN)NC1=O` [sHVF18, HVFRLKKWIXKVIXQFGE], the “hemolytic activity, RBCs or whole blood (heatmaps FIG. 4, FIG. 20a), in words” value (erythrocytes (RBCs)) was “lower hemolytic activity if compared with sGKY25”, the “Hemolytic activity, lysed RBCs” value (erythrocytes (RBCs); 1 h) was 35.4 ± 5.9% and the “hemolytic activity in whole blood, in words” value (whole blood) was “significantly lower hemolytic activity”. For the same molecule, the “Hemolytic activity, lysed RBCs in whole blood” value (whole blood; 1 h) was <1%, the “stability in the presence of HNE enhanced up to (time)” value [1] was “up to 18 h” and the “stability in the presence of PE enhanced up to (time)” value [2] was “up to 18 h”. The “intact peptide still detected after trypsin digestion (time)” value (trypsin) was ≥ 18 h and the “protection to proteolysis / fragments released (LC-MS/MS)” value [3] was “complete protection to proteolysis”.
`CC[C@H](C)[C@H](NC(=O)[C@H](Cc1c[nH]c2ccccc12)NC(=O)[C@H](CCCCN)NC(=O)[C@H](CCCCN)NC(=O)[C@H](CC(C)C)NC(=O)[C@H](CCCNC(=N)N)NC(=O)[C@H](Cc1ccccc1)NC(=O)[C@@H](NC(=O)[C@H](CCCCN)NC(=O)[C@@H](N)CCCCN)C(C)C)C(=O)N[C@@]1(C)CCCC=CCCC[C@@](C)(C(=O)N[C@@H](CCC(N)=O)C(=O)N[C@@H](Cc2ccccc2)C(=O)NCC(=O)N[C@@H](CCC(=O)O)C(=O)O)NC(=O)[C@H]([C@@H](C)CC)NC(=O)[C@H](C(C)C)NC(=O)[C@H](CCCCN)NC1=O` [sKKVF18, KKVFRLKKWIX1KVIX2QFGE] (H-KKVFRLKKWI[S5]KVI[S5]QFGE-OH; staple 11-15) was tested, and the “Hemolytic activity, lysed RBCs” value (erythrocytes (RBCs); 1 h) was 27.8 ± 3.0% and the “Hemolytic activity, lysed RBCs in whole blood” value (whole blood; 1 h) was <1%.
In the case of `CC[C@H](C)[C@H](NC(=O)[C@H](Cc1c[nH]c2ccccc12)NC(=O)[C@H](CCCCN)NC(=O)[C@H](CCCCN)NC(=O)[C@H](CC(C)C)NC(=O)[C@H](CCCNC(=N)N)NC(=O)[C@H](Cc1ccccc1)NC(=O)[C@@H](NC(=O)[C@@H](N)CCCCN)C(C)C)C(=O)N[C@@]1(C)CCCC=CCCC[C@@](C)(C(=O)N[C@@H](CCC(N)=O)C(=O)N[C@@H](Cc2ccccc2)C(=O)NCC(=O)N[C@@H](CCC(=O)O)C(=O)O)NC(=O)[C@H]([C@@H](C)CC)NC(=O)[C@H](C(C)C)NC(=O)[C@H](CCCCN)NC1=O` [sKVF18, KVFRLKKWIXKVIXQFGE] (H-KVFRLKKWI[S5]KVI[S5]QFGE-OH; staple 10-14), the “Hemolytic activity, lysed RBCs” value (erythrocytes (RBCs); 1 h) is reported as 51.4 ± 4.9% and the “Hemolytic activity, lysed RBCs in whole blood” value (whole blood; 1 h) is reported as <1%.
For `CC[C@H](C)[C@H](NC(=O)[C@H](Cc1c[nH]c2ccccc12)NC(=O)[C@H](CCCCN)NC(=O)[C@H](CCCCN)NC(=O)[C@H](CC(C)C)NC(=O)[C@H](CCCNC(=N)N)NC(=O)[C@H](Cc1ccccc1)NC(=O)[C@@H](NC(=O)[C@H](CCCNC(=N)N)NC(=O)[C@H](CCCNC(=N)N)NC(=O)[C@H](CCCNC(=N)N)NC(=O)[C@@H](N)CCCNC(=N)N)C(C)C)C(=O)N[C@@]1(C)CCCC=CCCC[C@@](C)(C(=O)N[C@@H](CCC(N)=O)C(=O)N[C@@H](Cc2ccccc2)C(=O)NCC(=O)N[C@@H](CCC(=O)O)C(=O)O)NC(=O)[C@H]([C@@H](C)CC)NC(=O)[C@H](C(C)C)NC(=O)[C@H](CCCCN)NC1=O` [sRRRRVF18, RRRRVFRLKKWIX1KVIX2QFGE] (H-RRRRVFRLKKWI[S5]KVI[S5]QFGE-OH; staple 13-17), the “Hemolytic activity, lysed RBCs” value (erythrocytes (RBCs); 1 h) was 64.9 ± 11.4% and the “Hemolytic activity, lysed RBCs in whole blood” value (whole blood; 1 h) was <1%.
In the case of `CC[C@H](C)[C@H](NC(=O)[C@H](Cc1c[nH]c2ccccc12)NC(=O)[C@H](CCCCN)NC(=O)[C@H](CCCCN)NC(=O)[C@H](CC(C)C)NC(=O)[C@H](CCCNC(=N)N)NC(=O)[C@H](Cc1ccccc1)NC(=O)[C@@H](NC(=O)[C@H](CCCNC(=N)N)NC(=O)[C@H](CCCNC(=N)N)NC(=O)[C@@H](N)CCCNC(=N)N)C(C)C)C(=O)N[C@@]1(C)CCCC=CCCC[C@@](C)(C(=O)N[C@@H](CCC(N)=O)C(=O)N[C@@H](Cc2ccccc2)C(=O)NCC(=O)N[C@@H](CCC(=O)O)C(=O)O)NC(=O)[C@H]([C@@H](C)CC)NC(=O)[C@H](C(C)C)NC(=O)[C@H](CCCCN)NC1=O` [sRRRVF18, RRRVFRLKKWIX1KVIX2QFGE] (H-RRRVFRLKKWI[S5]KVI[S5]QFGE-OH; staple 12-16), the “Hemolytic activity, lysed RBCs” value (erythrocytes (RBCs); 1 h) is reported as 61.5 ± 6.2% and the “Hemolytic activity, lysed RBCs in whole blood” value (whole blood; 1 h) is reported as <1%.
For `CC[C@H](C)[C@H](NC(=O)[C@H](Cc1c[nH]c2ccccc12)NC(=O)[C@H](CCCCN)NC(=O)[C@H](CCCCN)NC(=O)[C@H](CC(C)C)NC(=O)[C@H](CCCNC(=N)N)NC(=O)[C@H](Cc1ccccc1)NC(=O)[C@@H](NC(=O)[C@H](CCCNC(=N)N)NC(=O)[C@@H](N)CCCNC(=N)N)C(C)C)C(=O)N[C@@]1(C)CCCC=CCCC[C@@](C)(C(=O)N[C@@H](CCC(N)=O)C(=O)N[C@@H](Cc2ccccc2)C(=O)NCC(=O)N[C@@H](CCC(=O)O)C(=O)O)NC(=O)[C@H]([C@@H](C)CC)NC(=O)[C@H](C(C)C)NC(=O)[C@H](CCCCN)NC1=O` [sRRVF18, RRVFRLKKWIX1KVIX2QFGE] (H-RRVFRLKKWI[S5]KVI[S5]QFGE-OH; staple 11-15), the “Hemolytic activity, lysed RBCs” value (erythrocytes (RBCs); 1 h) was 49.1 ± 4.9% and the “Hemolytic activity, lysed RBCs in whole blood” value (whole blood; 1 h) was <1%.
`CC[C@H](C)[C@H](NC(=O)[C@H](Cc1c[nH]c2ccccc12)NC(=O)[C@H](CCCCN)NC(=O)[C@H](CCCCN)NC(=O)[C@H](CC(C)C)NC(=O)[C@H](CCCNC(=N)N)NC(=O)[C@H](Cc1ccccc1)NC(=O)[C@@H](NC(=O)[C@@H](N)CCCNC(=N)N)C(C)C)C(=O)N[C@@]1(C)CCCC=CCCC[C@@](C)(C(=O)N[C@@H](CCC(N)=O)C(=O)N[C@@H](Cc2ccccc2)C(=O)NCC(=O)N[C@@H](CCC(=O)O)C(=O)O)NC(=O)[C@H]([C@@H](C)CC)NC(=O)[C@H](C(C)C)NC(=O)[C@H](CCCCN)NC1=O` [sRVF18, RVFRLKKWIXKVIXQFGE] (H-RVFRLKKWI[S5]KVI[S5]QFGE-OH; staple 10-14) was tested, and the “Hemolytic activity, lysed RBCs” value (erythrocytes (RBCs); 1 h) was 53.6 ± 3.8% and the “Hemolytic activity, lysed RBCs in whole blood” value (whole blood; 1 h) was <1%.
With “cyclo[GKYGE]YTHVFRLKKWIXKVIXQFGE [2sGKY25]” the IC50 [4] was 8 ± 2.3 µM, the “anti-inflammatory activity in LPS-stimulated blood (TNF-α and IL-1β release), in words” value [5] was “better suppression of LPS-induced TNF-α and IL-1β release than GKY25” and the “Hemolytic activity, lysed RBCs” value (erythrocytes (RBCs)) was 49.1 ± 13.6%. For the same molecule, the “Hemolytic activity, lysed RBCs in whole blood” value (whole blood) was <1% and the “hemolytic activity in whole blood, in words” value (whole blood) was “slightly lower than for sGKY25, but definitely higher than for sHVF18”.
